The target in the first test is Human LDHA (Homo sapiens (Human), UniProt P00338). Description: human LDHA primary biochemical assay (resazurin/diaphorase coupled, fluorescence). Conditions: LDHA inhibitory activity, activity level based on IC50 (Table 7). An excerpt:
Test compounds were placed in a Greiner Bio-One (Monroe, N.C.) 1536-well black solid bottom assay plate. 200 millimolar (mM) Tris HCl, pH 7.4, 100 micromolar […] EDTA and 0.01% TWEEN-20™, final concentration, was used as the assay buffer. The LDHA reagent was 2 nanomolar (nM) Human LDHA (Meridian Life Science, Inc., Memphis, Tenn.), final concentration, in assay buffer.
For orientation: IC50 means the point on the concentration scale where inhibition reaches its midpoint. Molecule `Cc1ccc(-c2nn(-c3nc(C(=O)O)cs3)cc2Cc2ccc(S(N)(=O)=O)cc2)cc1-c1cccc(F)c1` [Compound 497, 2-(3-(3′-fluoro-6-methyl-[1,1′-biphenyl]-3-yl)-4-(4-sulfamoylbenzyl)-1H-pyrazol-1-yl)thiazole-4-carboxylic acid] yielded an IC50 of 100 to 1000 nM.
With `NS(=O)(=O)c1ccc(Cc2c(-c3cccc(-c4ccc(F)cc4)c3)nn(-c3nc(C(=O)O)cs3)c2C2CC2)c(F)c1` [Compound 357], the 50% inhibitory concentration (IC50) is < 100 nM.
Same read-out and setting: for `NS(=O)(=O)c1ccc(Cc2cnn(-c3nc(C(=O)O)cs3)c2-c2ccc3ccccc3c2)cc1` [Compound 474, 2-(5-(naphthalen-2-yl)-4-(4-sulfamoylbenzyl)-1H-pyrazol-1-yl)thiazole-4-carboxylic acid] the value was < 100 nM; for `NS(=O)(=O)c1ccc(Cc2c(CC3CC3)nn(-c3nc(C(=O)O)cs3)c2-c2cc(F)cc(-c3cccc(F)c3)c2)cc1` [Compound 525, 4-((3-(cyclopropylmethyl)-5-(3′,5-difluoro-[1,1′-biphenyl]-3-yl)-1-(4-((oxo-l3-methyl)-l3-oxidanyl)thiazol-2-yl)-1H-pyrazol-4-yl)methyl)benzenesulfonamide], 1000 to 57000 nM.
Regarding `CCOC(=O)c1csc(-n2nc(-c3ccc(F)c(C#CC4CCCC4)c3)c(Cc3cccc(S(N)(=O)=O)c3)c2CC2CC2)n1` [Compound 536, ethyl 2-(3-(3-(cyclopentylethynyl)-4-fluorophenyl)-5-(cyclopropylmethyl)-4-(3-sulfamoylbenzyl)-1H-pyrazol-1-yl)thiazole-4-carboxylate], the IC50 is > 57000 nM.
The same measure, in the same setting: in the case of `NS(=O)(=O)c1ccc(Cc2c(-c3ccc(F)c(/C=C/C4CC4)c3)nn(-c3nc(C(=O)O)cs3)c2CC2CC2)cc1F` [Compound 532, (E)-2-(5-(cyclopropylmethyl)-3-(3-(2-cyclopropylvinyl)-4-fluorophenyl)-4-(3-fluoro-4-sulfamoylbenzyl)-1H-pyrazol-1-yl)thiazole-4-carboxylic acid] it was < 100 nM; in that of `CCOC(=O)c1csc(-n2nc(-c3ccc(F)c(-c4ccc(F)cc4)c3)c(Cc3ccc(S(N)(=O)=O)cc3F)c2CC2CC2)n1` [Compound 345], 1000 to 57000 nM.
Still for that read-out and setting: for `NS(=O)(=O)c1ccc(Cc2c(C3CC3)nn(-c3nc(C(=O)O)cs3)c2-c2cccc(-c3cccc(F)c3)c2)c(F)c1` [Compound 358] the value was 1000 to 57000 nM; for `COc1c(Cc2ccc(S(N)(=O)=O)cc2)c(-c2ccc(F)c(F)c2)nn1-c1nc(C(=O)O)cs1` [Compound 455, 2-(3-(3,4-difluorophenyl)-5-methoxy-4-(4-sulfamoylbenzyl)-1H-pyrazol-1-yl)thiazole-4-carboxylic acid], 100 to 1000 nM.

The test is the same for the next values; noted with them: LDHA inhibitory activity, assay of Example 1; activity level classes.
On to `NS(=O)(=O)c1ccc(Cc2cn(-c3nc(Br)cs3)nc2-c2ccccc2)cc1` [Compound 235], for which the IC50 is 1000 to 57000 nM.
On the same count and under the same terms, for `O=C(O)c1csc(-n2nc(-c3cc(F)ccc3F)cc2O)n1` [Compound 102, 2-(3-(2,5-difluorophenyl)-5-hydroxy-1H-pyrazol-1-yl)thiazole-4-carboxylic acid] the value was > 57000 nM; for `COC(=O)c1csc(-n2nc(-c3ccccc3)c(Cc3ccc(S(N)(=O)=O)cc3)c2Cc2nnn[nH]2)n1` [Compound 133], > 57000 nM; for `CCOC(=O)c1ccc(-n2nc(-c3ccccc3)c(Cc3ccc(S(N)(=O)=O)cc3)c2N)nn1` [Compound 140, ethyl 6-(5-amino-3-phenyl-4-(4-sulfamoylbenzyl)-1H-pyrazol-1-yl)pyridazine-3-carboxylate], > 57000 nM.
Same read-out and setting: in the case of `CCOC(=O)c1csc(-n2nc(-c3ccc(F)c(-c4ccc(F)cc4)c3)c(Cc3ccc(S(N)(=O)=O)c(F)c3)c2C2CC2)n1` [Compound 246] it was 1000 to 57000 nM.
Same read-out and setting: for `CS(=O)(=O)Nc1cc(-c2cc(O)n(-c3nc(C(=O)O)cs3)n2)ccc1F` [Compound 103, 2-(3-(4-fluoro-3-(methylsulfonamido)phenyl)-5-hydroxy-1H-pyrazol-1-yl)thiazole-4-carboxylic acid] the value was > 57000 nM; for `CCOC(=O)c1csc(-n2nc(C3CC3)c(Cc3ccc(S(N)(=O)=O)cc3)c2-c2cccc(-c3ccccc3)c2)n1` [Compound 180, ethyl 2-(5-([1,1′-biphenyl]-3-yl)-3-cyclopropyl-4-(4-sulfamoylbenzyl)-1H-pyrazol-1-yl)thiazole-4-carboxylate], > 57000 nM; for `NS(=O)(=O)c1ccc(NCc2cn(-c3nc(C(=O)O)cs3)nc2-c2ccccc2)cc1` [Compound 139, 2-(3-phenyl-4-(((4-sulfamoylphenyl)amino)methyl)-1H-pyrazol-1-yl)thiazole-4-carboxylic acid], > 57000 nM.
With `Nc1c(Cc2ccc(S(N)(=O)=O)cc2)c(-c2ccc(F)c(F)c2)nn1-c1nc(C(=O)O)cs1` [Compound 38, 2-(5-amino-3-(3,4-difluorophenyl)-4-(4-sulfamoylbenzyl)-1H-pyrazol-1-yl)thiazole-4-carboxylic acid], the IC50 is < 100 nM.
On the same count and under the same terms, in the case of `NS(=O)(=O)c1ccc(Cc2c(-c3cccc4cc(F)ccc34)nn(-c3nc(C(=O)O)cs3)c2O)cc1` [Compound 89, 2-(3-(6-fluoronaphthalen-1-yl)-5-hydroxy-4-(4-sulfamoylbenzyl)-1H-pyrazol-1-yl)thiazole-4-carboxylic acid] it was > 57000 nM.

The same test, now with this note: read-out: Inhibitory activity IC50.
As to `NS(=O)(=O)c1ccc(Cc2c(-c3ccccc3)nn(-c3nc(C(=O)O)cs3)c2C2CO2)cc1` (stereo not drawn) [Compound 178, 2-(5-(oxiran-2-yl)-3-phenyl-4-(4-sulfamoylbenzyl)-1H-pyrazol-1-yl)thiazole-4-carboxylic acid], the IC50 fell in the range of 1000 to 57000 nM.
Still for that read-out and setting: for `O=C(O)c1csc(-n2nc(-c3ccc(F)c(F)c3)cc2Cc2nnn[nH]2)n1` [Compound 75, 2-(5-((1H-tetrazol-5-yl)methyl)-3-(3,4-difluorophenyl)-1H-pyrazol-1-yl)thiazole-4-carboxylic acid] the value was 1000 to 57000 nM.
Same read-out and setting: for `NS(=O)(=O)c1ccc(Cc2cn(-c3nc(C(=O)O)cs3)c3ncccc23)cc1` [Compound 26, 2-(3-(4-sulfamoylbenzyl)-1H-pyrrolo[2,3-b]pyridin-1-yl)thiazole-4-carboxylic acid] the value was 100 to 1000 nM; for `NS(=O)(=O)c1ccc(Cc2cn(-c3nc(C(=O)O)cs3)c3cccc(CN4CCOCC4)c23)cc1` [Compound 193, 2-(4-(morpholinomethyl)-3-(4-sulfamoylbenzyl)-1H-indol-1-yl)thiazole-4-carboxylic acid], 100 to 1000 nM; for `NS(=O)(=O)c1ccc(Cc2c(-c3ccccc3)nn(-c3nc(CO)cs3)c2C(F)(F)F)cc1` [Compound 88, 4-((1-(4-(hydroxymethyl)thiazol-2-yl)-3-phenyl-5-(trifluoromethyl)-1H-pyrazol-4-yl)methyl)benzenesulfonamide], 1000 to 57000 nM.
On the same count and under the same terms, in the case of `NS(=O)(=O)c1ccc(Oc2c(C3CC3)nn(-c3nc(C(=O)O)cs3)c2-c2cccc(-c3ccccc3)c2)cc1` [Compound 186, 2-(5-([1,1′-biphenyl]-3-yl)-3-cyclopropyl-4-(4-sulfamoylphenoxy)-1H-pyrazol-1-yl)thiazole-4-carboxylic acid] it was 1000 to 57000 nM.
For `N[S+](=O)([O-])c1ccc(Cc2c(CC3CC3)nn(-c3nc(C(=O)O)cs3)c2-c2ccc(F)c(-c3cccc(F)c3)c2)c(F)c1` [Compound 323], the IC50 is 1000 to 57000 nM.
Still for that read-out and setting: for `N[S+](=O)([O-])c1ccc(Cc2c(CC(F)(F)F)nn(-c3nc(C(=O)O)cs3)c2-c2cccc(-c3ccccc3)c2)cc1` [Compound 303] the value was 1000 to 57000 nM.

Values taken from patent US10961200B2, “Small molecule inhibitors of lactate dehydrogenase and methods of use thereof” (THE UNITED STATES OF AMERICA, AS REPRESENTED BY THE …, priority 2014, dated 2021).
